Converted amounts (≈) assume the structure as drawn. Where two headings read alike, the source gives them in different places.
How the values were obtained:
pKa of free form (UV) = format: physicochemical
[1] = Approximate solubility of free form in solvents at 25° C. (manual dilution, visual observation); format: physicochemical; conditions: thermodynamic from solid, read-out: Solubility (mg/mL) at 25° C.
Procedure: The experiment was conducted by manual dilution combined with visual observation at 25° C. The total volumes of solvents added were recorded.

CYP1A2 = biological target: T1, CYP1A2 (Homo sapiens, UniProt P05177); experiment: CYP phenotyping, recombinant CYP enzyme incubation; format: in vitro ADME
T1 sequence (P05177 1-516): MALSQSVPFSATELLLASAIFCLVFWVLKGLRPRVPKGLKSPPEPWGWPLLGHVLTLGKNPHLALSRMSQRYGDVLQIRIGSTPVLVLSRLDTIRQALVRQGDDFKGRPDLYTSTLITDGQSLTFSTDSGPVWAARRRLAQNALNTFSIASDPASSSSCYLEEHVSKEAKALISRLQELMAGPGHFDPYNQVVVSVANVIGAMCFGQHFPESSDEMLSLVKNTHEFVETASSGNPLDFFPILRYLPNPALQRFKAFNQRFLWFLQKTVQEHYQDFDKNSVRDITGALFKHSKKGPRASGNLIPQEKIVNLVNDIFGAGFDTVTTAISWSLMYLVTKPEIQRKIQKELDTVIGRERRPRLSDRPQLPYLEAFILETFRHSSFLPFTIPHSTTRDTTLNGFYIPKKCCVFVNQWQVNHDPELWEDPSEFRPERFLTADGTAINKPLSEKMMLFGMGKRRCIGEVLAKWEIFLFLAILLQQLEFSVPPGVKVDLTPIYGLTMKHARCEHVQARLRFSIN
Procedure: (§1) These incubations were carried out at a concentration of 1 µM and contained 50 pmol/ml of CYP protein. Samples were taken at 0, 5, 10, 15, 20 and 30 minutes. The CLint and t1/2 were calculated from the data.

CYP2C19 = CYP2C19 (Homo sapiens, UniProt P33261); experiment: CYP phenotyping, recombinant CYP enzyme incubation; format: in vitro ADME
Procedure: as §1

CYP2C8 = biological target: T2, CYP2C8 (Homo sapiens, UniProt P10632); experiment: CYP phenotyping, recombinant CYP enzyme incubation; format: in vitro ADME
T2 sequence (P10632 1-490): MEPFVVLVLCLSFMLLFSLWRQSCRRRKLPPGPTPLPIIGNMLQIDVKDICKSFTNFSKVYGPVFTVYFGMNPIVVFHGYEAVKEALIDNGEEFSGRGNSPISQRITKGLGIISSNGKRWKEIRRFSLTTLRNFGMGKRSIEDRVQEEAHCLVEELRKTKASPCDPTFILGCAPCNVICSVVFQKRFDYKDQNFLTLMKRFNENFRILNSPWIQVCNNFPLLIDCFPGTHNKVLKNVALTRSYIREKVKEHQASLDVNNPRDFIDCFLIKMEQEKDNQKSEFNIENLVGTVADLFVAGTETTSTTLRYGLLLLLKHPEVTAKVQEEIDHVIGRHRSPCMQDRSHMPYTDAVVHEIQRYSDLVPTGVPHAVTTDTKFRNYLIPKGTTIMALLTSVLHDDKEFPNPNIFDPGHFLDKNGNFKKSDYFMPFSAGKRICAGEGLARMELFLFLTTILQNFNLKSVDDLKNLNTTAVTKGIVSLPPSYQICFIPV
Procedure: as §1

CYP2D6 = CYP2D6 (Homo sapiens, UniProt P10635); experiment: CYP phenotyping, recombinant CYP enzyme incubation; format: in vitro ADME
Procedure: as §1

CYP3A4 = CYP3A4 (Homo sapiens, UniProt P08684); experiment: CYP phenotyping, recombinant CYP enzyme incubation; format: in vitro ADME
Procedure: as §1

human CYP2A6 = biological target: T3, human CYP2A6 (Homo sapiens, UniProt P11509); experiment: CYP phenotyping, recombinant CYP enzyme incubation; format: in vitro ADME
T3 sequence (P11509 1-494): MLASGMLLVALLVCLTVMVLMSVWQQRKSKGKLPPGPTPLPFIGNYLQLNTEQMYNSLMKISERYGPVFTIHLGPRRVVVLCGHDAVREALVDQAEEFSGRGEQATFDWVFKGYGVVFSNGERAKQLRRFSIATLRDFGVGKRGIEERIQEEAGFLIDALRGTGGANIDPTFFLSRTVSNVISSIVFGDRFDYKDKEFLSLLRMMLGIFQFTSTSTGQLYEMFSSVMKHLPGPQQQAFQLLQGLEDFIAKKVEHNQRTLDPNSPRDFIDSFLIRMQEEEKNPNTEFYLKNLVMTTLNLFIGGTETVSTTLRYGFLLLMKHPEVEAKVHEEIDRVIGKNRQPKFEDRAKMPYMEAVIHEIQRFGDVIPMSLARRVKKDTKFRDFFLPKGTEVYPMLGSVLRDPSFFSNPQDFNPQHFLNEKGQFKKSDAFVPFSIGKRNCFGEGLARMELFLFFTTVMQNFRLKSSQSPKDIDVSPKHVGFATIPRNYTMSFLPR
Procedure: as §1

human CYP2E1 = human CYP2E1 (Homo sapiens, UniProt P05181); experiment: CYP phenotyping, recombinant CYP enzyme incubation; format: in vitro ADME
Procedure: as §1

human CYP3A5 = human CYP3A5 (Homo sapiens, UniProt P20815); experiment: CYP phenotyping, recombinant CYP enzyme incubation; format: in vitro ADME
Procedure: as §1

CYP2C19, sequence (P33261 whole entry): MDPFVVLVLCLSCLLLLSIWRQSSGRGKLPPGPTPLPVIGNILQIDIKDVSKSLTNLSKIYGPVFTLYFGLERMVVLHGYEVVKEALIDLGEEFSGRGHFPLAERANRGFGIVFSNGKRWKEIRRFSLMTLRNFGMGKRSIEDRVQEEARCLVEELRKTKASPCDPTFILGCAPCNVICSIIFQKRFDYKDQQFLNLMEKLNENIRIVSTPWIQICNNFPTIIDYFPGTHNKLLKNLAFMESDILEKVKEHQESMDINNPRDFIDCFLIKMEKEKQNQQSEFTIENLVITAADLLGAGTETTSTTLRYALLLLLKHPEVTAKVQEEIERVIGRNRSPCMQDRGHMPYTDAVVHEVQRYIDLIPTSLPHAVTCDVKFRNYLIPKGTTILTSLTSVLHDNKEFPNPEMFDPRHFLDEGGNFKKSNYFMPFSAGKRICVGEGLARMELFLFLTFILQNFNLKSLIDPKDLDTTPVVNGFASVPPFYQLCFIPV
CYP2D6, sequence (P10635 whole entry): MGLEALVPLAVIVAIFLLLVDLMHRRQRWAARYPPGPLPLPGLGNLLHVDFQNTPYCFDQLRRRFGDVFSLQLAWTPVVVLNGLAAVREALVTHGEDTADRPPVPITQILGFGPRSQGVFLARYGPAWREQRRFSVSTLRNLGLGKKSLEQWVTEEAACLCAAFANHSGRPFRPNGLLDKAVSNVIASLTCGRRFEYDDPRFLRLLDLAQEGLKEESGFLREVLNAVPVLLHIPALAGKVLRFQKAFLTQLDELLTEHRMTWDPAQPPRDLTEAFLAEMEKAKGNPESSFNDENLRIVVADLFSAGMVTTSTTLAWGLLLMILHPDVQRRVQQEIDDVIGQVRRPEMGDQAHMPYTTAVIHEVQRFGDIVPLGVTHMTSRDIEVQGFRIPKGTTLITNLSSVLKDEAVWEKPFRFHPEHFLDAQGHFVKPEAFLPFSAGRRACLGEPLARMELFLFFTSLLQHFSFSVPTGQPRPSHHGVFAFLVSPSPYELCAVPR
CYP3A4, sequence (P08684 whole entry): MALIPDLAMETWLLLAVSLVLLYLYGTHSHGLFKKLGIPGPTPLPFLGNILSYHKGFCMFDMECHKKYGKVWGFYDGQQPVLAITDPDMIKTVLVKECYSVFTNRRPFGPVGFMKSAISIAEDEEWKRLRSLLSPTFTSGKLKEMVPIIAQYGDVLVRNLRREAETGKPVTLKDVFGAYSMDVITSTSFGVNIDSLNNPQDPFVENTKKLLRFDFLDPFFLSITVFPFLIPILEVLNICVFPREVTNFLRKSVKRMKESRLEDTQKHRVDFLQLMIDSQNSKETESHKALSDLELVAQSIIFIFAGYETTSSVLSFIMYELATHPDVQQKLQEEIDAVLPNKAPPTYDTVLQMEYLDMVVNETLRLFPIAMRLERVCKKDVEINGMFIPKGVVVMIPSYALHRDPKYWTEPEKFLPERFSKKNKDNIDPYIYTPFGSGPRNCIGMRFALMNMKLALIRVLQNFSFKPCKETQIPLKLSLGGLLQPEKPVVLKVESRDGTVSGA
human CYP2E1, sequence (P05181 whole entry): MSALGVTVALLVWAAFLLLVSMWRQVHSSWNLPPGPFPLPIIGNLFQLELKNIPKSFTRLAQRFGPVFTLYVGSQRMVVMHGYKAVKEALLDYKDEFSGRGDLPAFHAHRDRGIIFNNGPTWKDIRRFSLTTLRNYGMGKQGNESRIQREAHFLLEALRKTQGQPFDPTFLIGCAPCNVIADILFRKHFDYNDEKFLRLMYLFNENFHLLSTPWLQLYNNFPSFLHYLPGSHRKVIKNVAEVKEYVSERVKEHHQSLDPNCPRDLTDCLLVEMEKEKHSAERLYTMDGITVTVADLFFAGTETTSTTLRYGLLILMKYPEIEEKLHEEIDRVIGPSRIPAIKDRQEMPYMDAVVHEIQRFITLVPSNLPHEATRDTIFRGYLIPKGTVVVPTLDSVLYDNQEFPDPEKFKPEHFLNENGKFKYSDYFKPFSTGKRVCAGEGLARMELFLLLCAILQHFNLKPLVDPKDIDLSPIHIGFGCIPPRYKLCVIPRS
human CYP3A5, sequence (P20815 whole entry): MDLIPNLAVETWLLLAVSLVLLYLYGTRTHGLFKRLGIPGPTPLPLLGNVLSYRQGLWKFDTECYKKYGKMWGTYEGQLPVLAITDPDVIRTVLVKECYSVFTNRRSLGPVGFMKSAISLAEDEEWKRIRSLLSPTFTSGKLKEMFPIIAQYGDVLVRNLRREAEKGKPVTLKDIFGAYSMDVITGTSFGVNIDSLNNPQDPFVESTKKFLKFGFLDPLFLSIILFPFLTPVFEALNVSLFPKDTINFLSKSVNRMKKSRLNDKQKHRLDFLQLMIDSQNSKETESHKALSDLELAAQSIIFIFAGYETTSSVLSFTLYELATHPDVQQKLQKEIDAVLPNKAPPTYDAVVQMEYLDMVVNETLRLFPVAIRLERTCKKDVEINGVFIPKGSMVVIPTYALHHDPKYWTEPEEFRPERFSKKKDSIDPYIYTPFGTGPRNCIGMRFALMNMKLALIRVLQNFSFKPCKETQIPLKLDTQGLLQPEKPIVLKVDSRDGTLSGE

For `CN1CCC[C@H](CN2c3ccccc3Sc3ccccc32)C1` [(S)-mepazine, (S)-10-((1-methylpiperidin-3-yl)methyl)-10H-phenothiazine], which pKa (pKa of free form (UV)) is on record?
The pKa was 9.24.

And the solubility ([1]; 1,4-dioxane, organic solvent or mixture)?
The solubility was > 100 mg/mL.

What about the solubility ([1]; 2-propanol, organic solvent or mixture) of the same molecule?
Its solubility is 33.3 to 50 mg/mL (≈ 107 to 161 mM).

What about the solubility ([1]; DMF, organic solvent or mixture) of the same molecule?
Its solubility is > 100 mg/mL.

What about the solubility ([1]; acetone, organic solvent or mixture) of the same molecule?
The solubility was > 100 mg/mL.

What about the solubility ([1]; acetonitrile, organic solvent or mixture) of the same molecule?
Its solubility is 25 to 33.3 mg/mL (≈ 80.5 to 107 mM).

And the solubility ([1]; dichloromethane, organic solvent or mixture)?
The solubility was > 100 mg/mL.

And the solubility ([1]; ethanol, organic solvent or mixture)?
The solubility was > 100 mg/mL.

What about the solubility ([1]; ethyl acetate, organic solvent or mixture) of the same molecule?
The solubility was 50 to 100 mg/mL (≈ 161 to 322 mM).

What about the solubility ([1]; heptane, organic solvent or mixture) of the same molecule?
Its solubility is 10 to 14.3 mg/mL (≈ 32.2 to 46.1 mM).

And the solubility ([1]; isopropyl acetate, organic solvent or mixture)?
The solubility was 50 to 100 mg/mL (≈ 161 to 322 mM).

What about the solubility ([1]; methanol, organic solvent or mixture) of the same molecule?
The solubility was > 100 mg/mL.

And the solubility ([1]; methyl ethyl ketone, organic solvent or mixture)?
The solubility was > 100 mg/mL.

What about the solubility ([1]; t-butyl methyl ether, organic solvent or mixture) of the same molecule?
The solubility was 25 to 33.3 mg/mL (≈ 80.5 to 107 mM).

And the solubility ([1]; tetrahydrofuran, organic solvent or mixture)?
Its solubility is > 100 mg/mL.

What about the solubility ([1]; toluene, organic solvent or mixture) of the same molecule?
Its solubility is > 100 mg/mL.

And the solubility ([1]; water)?
The solubility was < 2 mg/mL.

And the Contribution % (CYP1A2; CYP1A2)?
The Contribution % was 9.61%.

And the contribution % (CYP1A2; CYP1A2)?
Its contribution % is 9.61%.

And the half-life at 1 µM (CYP1A2; human, recombinant CYP1A2, 1 µM, 50 pmol/ml of CYP protein, mean ± SD, n = 3)?
Its half-life at 1 µM is 51.5 ± 5.99 min.

And the CLint (CYP1A2; recombinant CYP1A2, 1 µM, 50 pmol/ml of CYP protein, mean ± SD, n = 3)?
The CLint was 0.272 ± 0.0339 μL/min/pmol CYP.

What about the CLint (CYP1A2; recombinant CYP1A2, 1 µM, 50 pmol/ml CYP protein) of the same molecule?
The CLint was 0.272 µL/min/pmol.

And the Contribution % (CYP2C19; CYP2C19)?
Its Contribution % is 8.01%.

And the contribution % (CYP2C19; CYP2C19)?
The contribution % was 8.01%.

What about the half-life at 1 µM (CYP2C19; human, recombinant CYP2C19, 1 µM, 50 pmol/ml of CYP protein, mean ± SD, n = 3) of the same molecule?
Its half-life at 1 µM is 25.9 ± 1.68 min.

What about the CLint (CYP2C19; recombinant CYP2C19, 1 µM, 50 pmol/ml of CYP protein, mean ± SD, n = 3) of the same molecule?
The CLint was 0.537 ± 0.0361 μL/min/pmol CYP.

What about the CLint (CYP2C19; recombinant CYP2C19, 1 µM, 50 pmol/ml CYP protein) of the same molecule?
Its CLint is 0.537 µL/min/pmol.

And the Contribution % (CYP2C8; CYP2C8)?
The Contribution % was 12.8%.

What about the contribution % (CYP2C8; CYP2C8) of the same molecule?
Its contribution % is 12.8%.

And the half-life at 1 µM (CYP2C8; human, recombinant CYP2C8, 1 µM, 50 pmol/ml of CYP protein, mean ± SD, n = 3)?
Its half-life at 1 µM is 57.2 ± 14.4 min.

And the CLint (CYP2C8; recombinant CYP2C8, 1 µM, 50 pmol/ml of CYP protein, mean ± SD, n = 3)?
Its CLint is 0.254 ± 0.0720 μL/min/pmol CYP.

What about the CLint (CYP2C8; recombinant CYP2C8, 1 µM, 50 pmol/ml CYP protein) of the same molecule?
Its CLint is 0.254 µL/min/pmol.

And the Contribution % (CYP2D6; CYP2D6)?
The Contribution % was 11.0%.

What about the contribution % (CYP2D6; CYP2D6) of the same molecule?
The contribution % was 11.0%.

And the “CYP isoform participating in metabolism” value (CYP2D6; based on expressed human cytochrome P450s and liver microsomes with specific inhibitors)?
Its value is “CYP2D6 is major CYP isoform”.

What about the half-life at 1 µM (CYP2D6; human, recombinant CYP2D6, 1 µM, 50 pmol/ml of CYP protein, mean ± SD, n = 3) of the same molecule?
The half-life at 1 µM was 9.94 ± 0.819 min.

And the CLint (CYP2D6; recombinant CYP2D6, 1 µM, 50 pmol/ml of CYP protein, mean ± SD, n = 3)?
Its CLint is 1.40 ± 0.112 μL/min/pmol CYP.

What about the CLint (CYP2D6; recombinant CYP2D6, 1 µM, 50 pmol/ml CYP protein) of the same molecule?
The CLint was 1.40 µL/min/pmol.

And the Contribution % (CYP3A4; CYP3A4)?
The Contribution % was 50.3%.

And the contribution % (CYP3A4; CYP3A4)?
Its contribution % is 50.3%.

What about the half-life at 1 µM (CYP3A4; human, recombinant CYP3A4, 1 µM, 50 pmol/ml of CYP protein, mean ± SD, n = 3) of the same molecule?
The half-life at 1 µM was 23.5 ± 2.35 min.

What about the CLint (CYP3A4; recombinant CYP3A4, 1 µM, 50 pmol/ml of CYP protein, mean ± SD, n = 3) of the same molecule?
Its CLint is 0.593 ± 0.0562 μL/min/pmol CYP.

And the CLint (CYP3A4; recombinant CYP3A4, 1 µM, 50 pmol/ml CYP protein)?
The CLint was 0.593 µL/min/pmol.

And the Contribution % (human CYP2A6; CYP2A6)?
The Contribution % was 0.00%.

And the “metabolism by recombinant CYP isoform” value (human CYP2A6; recombinant CYP2A6)?
Its value is “not found to substantially metabolize”.

What about the CLint (human CYP2A6; recombinant CYP2A6, 1 µM, turnover not significant and > 80% remaining at last time point reported as 0.00) of the same molecule?
Its CLint is 0.00 μL/min/pmol CYP.

And the t1/2 (human CYP2A6; recombinant CYP2A6, 1 µM, turnover not significant and > 80% remaining at last time point reported as ∞)?
The t1/2 was “∞”.

What about the Contribution % (human CYP2E1; CYP2E1) of the same molecule?
Its Contribution % is 0.00%.

And the “metabolism by recombinant CYP isoform” value (human CYP2E1; recombinant CYP2E1)?
Its value is “not found to substantially metabolize”.

What about the CLint (human CYP2E1; recombinant CYP2E1, 1 µM, turnover not significant and > 80% remaining at last time point reported as 0.00) of the same molecule?
Its CLint is 0.00 μL/min/pmol CYP.

And the t1/2 (human CYP2E1; recombinant CYP2E1, 1 µM, turnover not significant and > 80% remaining at last time point reported as ∞)?
The t1/2 was “∞”.

What about the Contribution % (human CYP3A5) of the same molecule?
The Contribution % was 0.0651%.

And the contribution % (human CYP3A5)?
The contribution % was 0.0651%.

— patent US20240217961A1 (MONOPTEROS THERAPEUTICS, INC., priority 2021, published 2024)
